Assay [1] concerns the target T1, human GLP-1 R (Homo sapiens, UniProt P43220).
T1 construct: expressed in transfected cells
Description: Human GLP-1 receptor (GLP-1-R) activity assay, cAMP induction (AlphaScreen) in HEK293 cells. Type of assay: cell-based. The conditions noted are these: Table 2b (most comprehensive data); average EC50; cAMP in HEK293 cells expressing human GLP-1 R; read-out: GLP1 R (EC50 in nM).
Description: (§1) Briefly, HEK293 cells expressing the human GIP R, GLP-1 R or GCG R (stable cell lines generated through transfection of the cDNA for human GIP R, GLP-1 R or GCG R and selection of stable clones) were seeded at 30,000 cells/well in 96-well microtiter plates coated with 0.01% poly-L-lysine, and grown for 1 day in culture in 200 μl growth medium (DMEM, 10% FCS, Penicillin (100 IU/ml), Streptomycin (100 μg/ml)). On the day of analysis, growth medium was removed and the cells were washed once with 150 μl Tyrode's buffer (Tyrode's Salts (9.6 g/I), 10 mM HEPES, pH 7.4). […] The Assay buffer was removed and cells are lysed in 80 μl Lysis buffer (0.1% w/v BSA, 5 mM HEPES, 0.3% v/v Tween-20) per well. From each well 10 μl of lysed cells were transferred to a 384-well plate and mixed with 15 μl bead-mix (1 Unit/15 μl anti-cAMP Acceptor Beads, 1 Unit/15 μl Donor Beads, and 1 Unit/15 μl Biotinylated cAMP in Assay Buffer). The plates were mixed and incubated in the dark for an hour at room temperature before measuring using an Envision™ plate reader (Perkin-Elmer).
(§2) The resulting cAMP curves were plotted as absolute cAMP concentrations (nM) over log (test compound concentration) and analyzed using the curve fitting program XLfit.
(§3) Parameters calculated to describe both the potency as well as the agonistic activity of each test compound on the receptors were:
(§4) EC50, a concentration resulting in a half-maximal elevation of cAMP levels, reflecting the potency of the test compound.

In assay [2] the target is T2, human GIP R (Homo sapiens, UniProt P48546).
T2 construct: expressed in transfected cells
T2 sequence (P48546 22-466): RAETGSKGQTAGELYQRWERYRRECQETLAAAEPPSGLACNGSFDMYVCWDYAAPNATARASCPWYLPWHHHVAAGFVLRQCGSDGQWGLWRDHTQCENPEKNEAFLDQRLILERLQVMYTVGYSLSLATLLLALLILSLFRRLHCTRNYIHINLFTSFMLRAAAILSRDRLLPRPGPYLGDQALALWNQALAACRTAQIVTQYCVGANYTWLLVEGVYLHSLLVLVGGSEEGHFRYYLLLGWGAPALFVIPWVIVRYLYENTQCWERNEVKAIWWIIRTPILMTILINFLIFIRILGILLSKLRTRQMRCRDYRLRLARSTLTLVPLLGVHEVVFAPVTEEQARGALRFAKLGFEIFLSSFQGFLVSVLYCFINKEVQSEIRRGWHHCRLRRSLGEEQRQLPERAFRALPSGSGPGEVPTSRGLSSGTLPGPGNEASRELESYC
Description: Human GIP receptor (GIP-R) activity assay, cAMP induction (AlphaScreen) in HEK293 cells. Type of assay: cell-based.
Description: as §1, §2, §3, §4

The structures appear in SMILES notation. Like-named read-outs stand apart in the source and are kept apart here. Numbered stars: 1 amine (or outer) side, 2 acyl side, 3 side chain; on linkers, the order of the positions; unused ones are H or OH. Square brackets hold non-standard residues; d marks the D form. Side chains are listed from the residue outwards. Peptide text beside a SMILES is read from it. * marks the point of attachment. γGlu = O=C(O)[C@H](CCC(=O)[*:2])N[*:1]; Stearoyl = CCCCCCCCCCCCCCCCCC(=O)*; AEEA = NCCOCCOCC(=O)O; Aib = CC(C)(N)C(=O)O

T1 sequence (P43220 24-463): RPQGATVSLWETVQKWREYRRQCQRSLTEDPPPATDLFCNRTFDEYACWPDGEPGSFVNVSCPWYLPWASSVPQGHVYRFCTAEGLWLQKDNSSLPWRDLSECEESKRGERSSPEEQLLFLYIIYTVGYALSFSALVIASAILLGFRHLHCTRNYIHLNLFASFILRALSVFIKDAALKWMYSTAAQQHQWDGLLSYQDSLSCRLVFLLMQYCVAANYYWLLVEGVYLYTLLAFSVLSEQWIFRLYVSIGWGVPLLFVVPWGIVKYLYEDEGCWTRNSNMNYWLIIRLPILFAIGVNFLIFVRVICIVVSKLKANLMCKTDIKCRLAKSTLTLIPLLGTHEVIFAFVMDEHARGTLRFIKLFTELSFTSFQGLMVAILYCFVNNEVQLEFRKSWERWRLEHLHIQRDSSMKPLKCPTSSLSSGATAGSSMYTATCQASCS

For orientation: EC50 means the concentration that produces a half-maximal response. With `CCCCCCCCCCCCCCCCCC(=O)N[C@@H](CCC(=O)NCCOCCOCC(=O)NCCOCCOCC(=O)NCCCC[C@H](NC(=O)[C@H](CCCCN)NC(=O)[C@H](CC(=O)O)NC(=O)[C@H](CC(C)C)NC(=O)[C@H](Cc1ccc(O)cc1)NC(=O)[C@@H](NC(=O)[C@H](CO)NC(=O)[C@H](Cc1ccc(O)cc1)NC(=O)[C@H](CC(=O)O)NC(=O)[C@H](CO)NC(=O)[C@@H](NC(=O)[C@H](Cc1ccccc1)NC(=O)[C@@H](NC(=O)CNC(=O)[C@H](CCC(N)=O)NC(=O)C(C)(C)NC(=O)[C@@H](N)Cc1ccc(O)cc1)[C@@H](C)O)[C@@H](C)O)[C@@H](C)CC)C(=O)N[C@@H](C)C(=O)N[C@@H](CCC(N)=O)C(=O)N[C@@H](CCCNC(=N)N)C(=O)N[C@@H](C)C(=O)N[C@@H](Cc1ccccc1)C(=O)N[C@H](C(=O)N[C@@H](CCC(=O)O)C(=O)N[C@@H](Cc1c[nH]c2ccccc12)C(=O)N[C@@H](CC(C)C)C(=O)N[C@@H](CC(C)C)C(=O)N[C@@H](C)C(=O)N[C@@H](CCC(N)=O)C(=O)NCC(=O)N1CCC[C@H]1C(=O)N[C@@H](CO)C(=O)N[C@@H](CO)C(=O)NCC(=O)N[C@@H](C)C(=O)N1CCC[C@H]1C(=O)N1CCC[C@H]1C(=O)N1CCC[C@H]1C(=O)N[C@@H](CO)C(N)=O)C(C)C)C(=O)O` [Compound 35] (H-Y[Aib]QGTFTSDYSIYLDKK([AEEA-AEEA-γGlu-Stearoyl])AQRAFVEWLLAQGPSSGAPPPS-NH2), the EC50 in assay [1] amounted to 0.012 nM; in assay [2] (Table 2b (most comprehensive data), average EC50, cAMP in HEK293 cells expressing human GIP R, read-out: GIP R (EC50 in nM)), 0.01 nM.
On to `CC(C)C[C@H](NC(=O)[C@H](C)NC(=O)[C@H](CCCCN)NC(=O)[C@H](CO)NC(=O)[C@H](Cc1ccc(O)cc1)NC(=O)[C@H](CC(=O)O)NC(=O)[C@H](CO)NC(=O)[C@@H](NC(=O)[C@H](Cc1ccccc1)NC(=O)[C@@H](NC(=O)CNC(=O)[C@H](CCC(N)=O)NC(=O)C(C)(C)NC(=O)[C@@H](N)Cc1ccc(O)cc1)[C@@H](C)O)[C@@H](C)O)C(=O)N[C@@H](CC(=O)O)C(=O)N[C@@H](CCC(=O)O)C(=O)N[C@@H](CCCCN)C(=O)N[C@@H](C)C(=O)N[C@@H](C)C(=O)N[C@@H](CCCCN)C(=O)N[C@@H](CCC(=O)O)C(=O)N[C@@H](Cc1ccccc1)C(=O)N[C@H](C(=O)N[C@@H](CCC(=O)O)C(=O)N[C@@H](Cc1c[nH]c2ccccc12)C(=O)N[C@@H](CC(C)C)C(=O)N[C@@H](CC(C)C)C(=O)N[C@@H](CO)C(=O)N[C@@H](C)C(N)=O)C(C)C` [Compound 21] (HELM PEPTIDE1{Y.[Aib].Q.G.T.F.T.S.D.Y.S.K.A.L.D.E.K.A.A.K.E.F.V.E.W.L.L.S.A.[am]}$$$$V2.0), for which, in assay [1], the 50% effective concentration (EC50) was 0.015 nM.
Same read-out and setting: with `CCCCCCCCCCCCCCCC(=O)N[C@@H](CCC(=O)NCCCC[C@H](NC(=O)[C@H](CCC(=O)O)NC(=O)[C@H](CC(C)C)NC(=O)[C@H](Cc1ccc(O)cc1)NC(=O)[C@@H](NC(=O)[C@H](CO)NC(=O)[C@H](Cc1ccc(O)cc1)NC(=O)[C@H](CC(=O)O)NC(=O)[C@H](CO)NC(=O)[C@@H](NC(=O)[C@H](Cc1ccccc1)NC(=O)[C@@H](NC(=O)CNC(=O)[C@H](CCC(N)=O)NC(=O)C(C)(C)NC(=O)[C@@H](N)Cc1ccc(O)cc1)[C@@H](C)O)[C@@H](C)O)[C@@H](C)CC)C(=O)N[C@@H](CCCCN)C(=O)N[C@@H](C)C(=O)N[C@@H](C)C(=O)N[C@@H](CCCCN)C(=O)N[C@@H](CCC(=O)O)C(=O)N[C@@H](Cc1ccccc1)C(=O)N[C@H](C(=O)N[C@@H](CCC(=O)O)C(=O)N[C@@H](Cc1c[nH]c2ccccc12)C(=O)N[C@@H](CC(C)C)C(=O)N[C@@H](CC(C)C)C(=O)N[C@@H](CO)C(=O)N[C@@H](C)C(N)=O)C(C)C)C(=O)O` [Compound 24] (HELM PEPTIDE1{Y.[Aib].Q.G.T.F.T.S.D.Y.S.I.Y.L.E.K.K.A.A.K.E.F.V.E.W.L.L.S.A.[am]}|PEPTIDE2{[CCCCCCCCCCCCCCCC(=O)[*:2]].[gGlu]}$PEPTIDE1,PEPTIDE2,16:R3-2:R2$$$V2.0) the figure was 0.11 nM; with `CC(C)C[C@H](NC(=O)[C@H](CC(C)C)NC(=O)[C@H](Cc1c[nH]c2ccccc12)NC(=O)[C@H](CCC(=O)O)NC(=O)[C@@H](NC(=O)[C@H](Cc1ccccc1)NC(=O)[C@H](CCC(=O)O)NC(=O)[C@H](CCCCN)NC(=O)[C@H](CCC(N)=O)NC(=O)[C@H](C)NC(=O)[C@H](CCCCN)NC(=O)[C@H](CCCCN)NC(=O)[C@H](CCC(=O)O)NC(=O)[C@H](CC(C)C)NC(=O)[C@H](Cc1ccc(O)cc1)NC(=O)[C@H](CCCCN)NC(=O)[C@H](CO)NC(=O)[C@H](Cc1ccc(O)cc1)NC(=O)[C@H](CC(=O)O)NC(=O)[C@H](CO)NC(=O)[C@@H](NC(=O)[C@H](Cc1ccccc1)NC(=O)[C@@H](NC(=O)CNC(=O)[C@H](CCC(N)=O)NC(=O)C(C)(C)NC(=O)[C@@H](N)Cc1ccc(O)cc1)[C@@H](C)O)[C@@H](C)O)C(C)C)C(=O)N[C@@H](CO)C(=O)N[C@@H](C)C(N)=O` [Compound 22] (HELM PEPTIDE1{Y.[Aib].Q.G.T.F.T.S.D.Y.S.K.Y.L.E.K.K.A.Q.K.E.F.V.E.W.L.L.S.A.[am]}$$$$V2.0), 0.03 nM.
The same measure, in the same setting: next, `CCCCCCCCCCCCCCCCCC(=O)N[C@@H](CCC(=O)NCCOCCOCC(=O)NCCOCCOCC(=O)NCCCC[C@H](NC(=O)[C@H](CCCCN)NC(=O)[C@H](CCC(=O)O)NC(=O)[C@H](CC(C)C)NC(=O)[C@H](C)NC(=O)[C@@H](NC(=O)[C@H](CO)NC(=O)[C@H](Cc1ccc(O)cc1)NC(=O)[C@H](CC(=O)O)NC(=O)[C@H](CO)NC(=O)[C@@H](NC(=O)[C@H](Cc1ccccc1)NC(=O)[C@@H](NC(=O)CNC(=O)[C@H](CCC(N)=O)NC(=O)C(C)(C)NC(=O)[C@@H](N)Cc1ccc(O)cc1)[C@@H](C)O)[C@@H](C)O)[C@@H](C)CC)C(=O)N[C@@H](C)C(=O)N[C@@H](CCC(N)=O)C(=O)N[C@@H](CCCNC(=N)N)C(=O)N[C@@H](C)C(=O)N[C@@H](Cc1ccccc1)C(=O)N[C@H](C(=O)N[C@@H](CCC(=O)O)C(=O)N[C@@H](Cc1c[nH]c2ccccc12)C(=O)N[C@@H](CC(C)C)C(=O)N[C@@H](CC(C)C)C(=O)N[C@@H](C)C(=O)N[C@@H](CCC(N)=O)C(=O)N[C@@H](CCCCN)C(N)=O)C(C)C)C(=O)O` [Compound 46] (H-Y[Aib]QGTFTSDYSIALEKK([AEEA-AEEA-γGlu-Stearoyl])AQRAFVEWLLAQK-NH2): 0.016 nM; `CC[C@H](C)[C@H](NC(=O)[C@H](CO)NC(=O)[C@H](Cc1ccc(O)cc1)NC(=O)[C@H](CC(=O)O)NC(=O)[C@H](CO)NC(=O)[C@@H](NC(=O)[C@H](Cc1ccccc1)NC(=O)[C@@H](NC(=O)CNC(=O)[C@H](CCC(N)=O)NC(=O)C(C)(C)NC(=O)[C@@H](N)Cc1ccc(O)cc1)[C@@H](C)O)[C@@H](C)O)C(=O)N[C@@H](Cc1ccc(O)cc1)C(=O)N[C@@H](CC(C)C)C(=O)N[C@@H](CC(=O)O)C(=O)N[C@@H](CCC(=O)O)C(=O)N[C@@H](CCCCN)C(=O)N[C@@H](C)C(=O)N[C@@H](C)C(=O)N[C@@H](CCCCN)C(=O)N[C@@H](CC(=O)O)C(=O)N[C@@H](Cc1ccccc1)C(=O)N[C@H](C(=O)N[C@@H](CCC(=O)O)C(=O)N[C@@H](Cc1c[nH]c2ccccc12)C(=O)N[C@@H](CC(C)C)C(=O)N[C@@H](CC(C)C)C(=O)N[C@@H](CO)C(=O)N[C@@H](C)C(N)=O)C(C)C` [Compound 17] (HELM PEPTIDE1{Y.[Aib].Q.G.T.F.T.S.D.Y.S.I.Y.L.D.E.K.A.A.K.D.F.V.E.W.L.L.S.A.[am]}$$$$V2.0): 0.013 nM.
`CC[C@H](C)[C@H](NC(=O)[C@H](CO)NC(=O)[C@H](Cc1ccc(O)cc1)NC(=O)[C@H](CC(=O)O)NC(=O)[C@H](CO)NC(=O)[C@@H](NC(=O)[C@H](Cc1ccccc1)NC(=O)[C@@H](NC(=O)CNC(=O)[C@H](CCC(N)=O)NC(=O)C(C)(C)NC(=O)[C@@H](N)Cc1ccc(O)cc1)[C@@H](C)O)[C@@H](C)O)C(=O)N[C@@H](Cc1ccc(O)cc1)C(=O)N[C@@H](CC(C)C)C(=O)N[C@@H](CC(=O)O)C(=O)N[C@@H](CO)C(=O)N[C@@H](CCCCN)C(=O)N[C@@H](C)C(=O)N[C@@H](C)C(=O)N[C@@H](CCCCN)C(=O)N[C@@H](CC(=O)O)C(=O)N[C@@H](Cc1ccccc1)C(=O)N[C@H](C(=O)N[C@@H](CCC(=O)O)C(=O)N[C@@H](Cc1c[nH]c2ccccc12)C(=O)N[C@@H](CC(C)C)C(=O)N[C@@H](CC(C)C)C(=O)N[C@@H](CO)C(=O)N[C@@H](C)C(N)=O)C(C)C` [Compound 10] (HELM PEPTIDE1{Y.[Aib].Q.G.T.F.T.S.D.Y.S.I.Y.L.D.S.K.A.A.K.D.F.V.E.W.L.L.S.A.[am]}$$$$V2.0) yielded a concentration for a half-maximal effect (EC50) in assay [2] of 0.2 nM.

The values are drawn from US20210363213A1, “GLUCAGON-GLP-1-GIP TRIPLE AGONIST COMPOUNDS” (priority 2013, published 2021).
